Reference: patent US20130225611A1, “Compositions and Methods for Reducing Cancer Cell Proliferation and Modulating Importin-Beta Function” (THE REGENTS OF THE UNIVERSITY OF CALIFORNIA, priority 2011, published 2013)

Legend:
importin-β = molecular target: T1, importin-β (Homo sapiens, UniProt Q14974); test: fluorescent thermal shift assay (Sypro Orange), importin-β; assay type: binding; settings: 2 μM importin-β, 50 μM compound
T1 construct: made in house; host or cells: BL21 cells (E. coli)
Method: Experiments were performed using Applied Biosystems StepOnePlus™ Real-Time polymerase chain reaction (RT-PCR) System. Protein stocks were diluted in PBS and added 70% v/v to a Microamp® Fast 96-well Reaction Plate and maintained on ice. Compounds (importazole and control compound 3016) were then added at 30% v/v in 3% DMSO. Freshly prepared 100× water based-dilution of Sypro® Orange Protein Gel Stain was then added at 1% v/v to reach a final reaction volume of 20 μl. Samples were mixed by gentle pipetting. After sealing the plates with Microamp™ Optical Adhesive Film, the plate was subjected to a heating cycle composed of a 10 sec prewarming step at 25° C. and a gradient between 25° C. and 95° C. with a 0.3° C. ramp. Data was analyzed using the StepOnePlus™ Software v2.1.

[1] = test system: nuclear import mediated by transportin; test: nuclear import of M9-YFP in permeabilized HeLa cells; assay type: cell-based, human; settings: permeabilized HeLa cells plus Xenopus egg extract
[2] = molecular target: T2, CFP-Ran and YFP-importin-β (Homo sapiens, UniProt Q14974); test: pull-down of CFP-Ran with S-tagged YFP-importin-β; assay type: binding; settings: importazole 200 μM
T2 construct: made in house; host or cells: BL21 cells (E. coli)
Method: For pulldown experiments to detect interaction between CFP-Ran and YFP-importin-β, all reactions were performed in buffer consisting of PBS+2 mM MgCl2, 5% glycerol, 0.01% NP-40, and 1.0 mM DTT. Reaction buffer was combined with the following components in this order: CFP-Ran, RCC1, BSA, GDP or GTP, importazole or 100% DMSO, and YFP-importin-β, yielding the following final concentrations: CFP-Ran: 2.5 nM, RCC1: 20 nM, BSA: 0.1 mg/ml, GDP or GTP: 200 μM, importazole: 200 μM, […]: 5.0 nM. Reactions were incubated for 10 min at room temperature, […] of S-protein agarose was added, and then incubated for an additional 30 min on a rotator before pelleting the agarose at 3,000 rpm for 1 min. The supernatant was removed followed by three washes with […] reaction buffer. The S-protein pellet was resuspended in 15 μl of sodium dodecyl sulfate-polyacrylamide gel electrophoresis (SDS PAGE) sample buffer and boiled briefly. After spinning down the S-protein pellet, 10 μl of the sample was analyzed by SDS PAGE.

[3] = test system: importin-β/RanGTP-mediated nuclear import; test: nuclear import of GFP-NLS reporter in permeabilized HeLa cells; assay type: cell-based, human; settings: 100 μM importazole, permeabilized HeLa cells plus Xenopus egg extract
Method: Because importazole binds importin-β and affects the RanGTP/importin-β interaction, importazole was tested to determine whether it inhibits the nuclear import of any protein bearing a classical nuclear localization signal (NLS). This was first tested using permeabilized HeLa cells, in which nuclear import of a GFP-NLS reporter can be reconstituted in vitro. Digitonin-permeabilized cells were incubated with a GFP-NLS reporter plus Xenopus laevis egg extracts as a source of soluble transport factors including Ran, importin-α, and importin-β.
HeLa cells were permeabilized and treated with an import reporter and cytosol from Xenopus laevis […] as described by Adam et al. (1990) J. Cell Biol. 111:807-816.

[4] = test system: importin-β-mediated nuclear import; test: ionomycin-induced NFAT-GFP nuclear import in HEK 293 cells; assay type: cell-based, human
Description: To investigate whether importazole is cell permeable and active in living human cells, a cell line was generated that stably expresses a GFP-tagged version of the transcription factor NFAT (nuclear factor of activated T cells), which shuttles between the nucleus and the cytoplasm in a calcium-regulated manner and is imported by importin-α/β and exported by CRM1. At steady state NFAT is predominantly cytoplasmic. An increase in cytoplasmic calcium induced by the ionophore ionomycin leads to the accumulation of NFAT in the nucleus (FIG. 4A). NFAT import can be reverted upon ionophore withdrawal, (FIG. 5A) providing an inducible system ideal for testing the effects of importazole on importin-β-mediated nuclear import and CRM1-mediated nuclear export, both of which are dependent upon RanGTP.
Cells were pretreated with 40 μM importazole for 1 hour followed by 30 minutes of ionomycin treatment in the continued presence of importazole. […] Thus, it is possible to use importazole in drug-washout experiments to study the Ran/importin-β pathway in cells.
A GFP-NFAT expression plasmid (pKW520) was generated by inserting a BamH I/Hind III-cleaved NFATC1 cDNA fragment into pEGFP-C1 (Clontech) digested with Bgl II and Hind III. The construct was stably transfected into HEK 293 cells and a single clone expressing moderate levels of NFAT-GFP was selected and maintained in Opti-mem media (Gibco) plus 4% fetal bovine serum, 1% penicillin/streptomycin, and 200 μg/ml G418. HeLa cells were grown and maintained according to standard protocols.
For all import and export experiments, HEK 293 cells stably expressing NFAT-GFP were grown on glass coverslips to approximately 50% confluency prior to drug treatment. In all cases, importazole was used at 40 μM and leptomycin B was used at 10 ng/ml. For controls, DMSO was used at a concentration of 0.4%. Ionomycin was added at 1.25 μM. Importazole and leptomycin B treatments were all for 1 hour. In all experiments cells were fixed with 4% formaldehyde prior to fluorescence microscopy. DNA was visualized with 1 μg/ml Hoechst dye.

T1 sequence (Q14974 whole entry): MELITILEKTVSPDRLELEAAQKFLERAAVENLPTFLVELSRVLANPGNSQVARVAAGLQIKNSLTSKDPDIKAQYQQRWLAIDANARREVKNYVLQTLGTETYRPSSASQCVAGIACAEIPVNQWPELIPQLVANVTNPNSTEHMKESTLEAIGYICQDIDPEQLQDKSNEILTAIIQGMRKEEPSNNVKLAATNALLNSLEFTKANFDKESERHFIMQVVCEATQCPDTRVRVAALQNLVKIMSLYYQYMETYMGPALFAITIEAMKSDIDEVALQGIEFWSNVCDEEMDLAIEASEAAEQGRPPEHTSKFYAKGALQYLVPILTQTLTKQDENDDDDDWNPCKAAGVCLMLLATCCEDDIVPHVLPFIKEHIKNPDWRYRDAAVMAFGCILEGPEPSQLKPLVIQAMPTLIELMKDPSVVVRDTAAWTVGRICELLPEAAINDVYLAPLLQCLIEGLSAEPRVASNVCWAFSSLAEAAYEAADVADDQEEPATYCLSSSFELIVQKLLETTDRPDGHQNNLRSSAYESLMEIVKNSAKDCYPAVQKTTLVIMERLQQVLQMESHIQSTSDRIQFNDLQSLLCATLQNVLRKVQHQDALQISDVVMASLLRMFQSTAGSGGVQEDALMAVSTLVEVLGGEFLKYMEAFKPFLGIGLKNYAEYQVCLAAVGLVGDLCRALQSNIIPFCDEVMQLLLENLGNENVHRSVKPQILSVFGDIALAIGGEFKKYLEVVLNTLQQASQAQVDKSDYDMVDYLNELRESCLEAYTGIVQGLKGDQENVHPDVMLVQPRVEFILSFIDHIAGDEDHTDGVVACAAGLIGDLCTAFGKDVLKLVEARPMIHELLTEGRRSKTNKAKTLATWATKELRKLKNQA

CC(Nc1nc(N2CCCC2)nc2ccccc12)c1ccccc1 (stereo not shown) [importazole, (1-phenyl-ethyl)-(2-pyrrolidin-1-yl-quinazolin-4-yl)-amine]
reduction of melting temperature of importin-β (importin-β): 1.72+/−0.27 °C
transportin-mediated nuclear import (M9-YFP) [1]: did not block nuclear import
effect on binding of CFP-RanGTP and YFP-importin-β in pull-down assays [2]: did not obviously affect the binding of the two proteins
nuclear import of GFP-NLS reporter [3]: blocked import
nuclear accumulation of NFAT-GFP after ionomycin addition ([4]; HEK 293, 40 μM, 1 hour pretreatment then 30 minutes ionomycin): virtually no import of NFAT-GFP
IC50 ([4]; Homo sapiens, HEK293, HEK 293 cells stably expressing NFAT-GFP, read-out: IC50 for inhibition of NFAT-GFP import): ~15 µM
reversibility of NFAT-GFP import inhibition ([4]; washout, 1 hour recovery before ionomycin): reversible upon importazole washout
